In patent publication US7399784B2, “Tocopherol and tocotrienol anti-obesity medicaments” (Children's Hospital & Research Center at Oakland, priority 2002, dated 2008):

Columns and labels:
[1] = test system: embryonic cell (C3H10T1/2); assay: Adipocyte differentiation of C3H10T1/2 cells induced with insulin plus drugs; assay type: cell-based; conditions: differentiation induced with insulin plus indomethacin, troglitazone or 15-deoxy-delta(12,14)-prostaglandin-J2
Description: For these example, differentiation was induced in the presence of insulin with drugs, including indomethacin, and troglitazone, one of the anti-diabetes drugs of the thiazolidinedione family, as well as 15-deoxy-delta (12, 14)-prostaglandin-J2, a putative endogenous ligand for the peroxisome proliferator-activated receptor-gamma. Our results clearly indicate that tocopherols and tocotrienols inhibit adipogenesis.

[2] = test system: leptin; conditions: healthy individuals; Ismermann et al. 1999; cited from earlier work
[3] = test system: adipocytes; assay: Weight gain and adipocyte triglyceride accumulation in mice fed a high-fat diet; assay type: in vivo, BALB/c mice; conditions: food admixture 0.1%, 3%, 0.02% or 0.01%
Description: We evaluate weight gain and triglyceride accumulation in adipocytes in mice fed a high-fat diet. Six-week-old BALB/c mice are fed powdered chow with various tocopherols and tocotrienols and mixtures thereof, as 0.1%, 3%, 0.02%, or 0.01% food admixtures. For histological analysis of adipose and hepatic tissues and determination of adipocyte size, adipose tissue is removed from each animal and fixed in 10% formaldehyde/PBS and maintained at 4° C. until use. Fixed specimens are dehydrated, embedded in tissue-freezing medium and frozen in dry ice and acetone. White adipose tissue is cut into 10-μm sections, and the sections mounted on silanized slides. The adipose tissue is stained with hematoxylin and eosin (H&E). Mature white adipocytes are identified by their characteristic […] appearance. Total adipocyte areas are traced manually and analyzed with Win ROOF software (Mitani Co. Ltd., Chiba, Japan). White adipocyte areas are measured in 400 or more cells per mouse in each group according to methods previously described (Kubota, N. et al.1999, Mol. Cell. 4:597-609).

[4] = test system: insulin-secreting cells; conditions: Sjoholm et al. 2000; cited from earlier work
[5] = treatment of diabetes; Malinowski et al. 2000; cited from earlier work

Compound	anti-adipogenesis activity (inhibition of differentiation to adipocytes) [1]	intracellular triglyceride accumulation [1]	leptin expression [2]	triglyceride accumulation in adipocytes [3]	weight gain [3]	protection against functional inhibition by nitric oxide [4]	weight gain and obesity [5]
Cc1c(C)c2c(c(C)c1O)CC[C@@](C)(CCC[C@H](C)CCC[C@H](C)CCCC(C)C)O2 [alpa-T, alpha-tocopherol, reference compound]	much less effective	much less effective	induces leptin expression				
Cc1cc(O)cc2c1O[C@](C)(CCC[C@H](C)CCC[C@H](C)CCCC(C)C)CC2 [delta-T, delta-tocopherol]	dose-dependent anti-adipogenesis activity	decrease intracellular triglyceride accumulation		reduced triglyceride accumulation in adipocytes	reduced weight gain		
CC(C)=CCC/C(C)=C/CC/C(C)=C/CC[C@]1(C)CCc2cc(O)cc(C)c2O1 [delta-tocotrienol]	dose-dependent anti-adipogenesis activity	decrease intracellular triglyceride accumulation		reduced triglyceride accumulation in adipocytes	reduced weight gain		
Cc1c(O)cc2c(c1C)O[C@](C)(CCC[C@H](C)CCC[C@H](C)CCCC(C)C)CC2 [gamma-T, gamma-tocopherol]	dose-dependent anti-adipogenesis activity	decrease intracellular triglyceride accumulation		reduced triglyceride accumulation in adipocytes	reduced weight gain	partially protects	
CC(C)=CCC/C(C)=C/CC/C(C)=C/CC[C@]1(C)CCc2cc(O)c(C)c(C)c2O1 [gamma-tocotrienol]	dose-dependent anti-adipogenesis activity	decrease intracellular triglyceride accumulation		reduced triglyceride accumulation in adipocytes	reduced weight gain		
CCc1ccc(CCOc2ccc(CC3SC(=O)NC3=O)cc2)nc1 (stereo not drawn) [proglitazone]							commonly leads to weight gain and obesity
CN(CCOc1ccc(CC2SC(=O)NC2=O)cc1)c1ccccn1 (stereo not drawn) [rosiglitazone]							commonly leads to weight gain and obesity
Cc1c(C)c2c(c(C)c1O)CCC(C)(COc1ccc(CC3SC(=O)NC3=O)cc1)O2 (stereo not drawn) [troglitazone]							commonly leads to weight gain and obesity
alpha-tocotrienol	dose-dependent anti-adipogenesis activity	decrease intracellular triglyceride accumulation		reduced triglyceride accumulation in adipocytes	reduced weight gain		
